Assay results taken from PubChem BioAssay (NCI).
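Following 48 hours of exposure in 96-well plates, responses at five concentrations were used to interpolate endpoints linearly. TGI is the concentration that stops growth completely.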

How the values were obtained:
Experiment in all cases: NCI anticancer screen, dose series, 48 h
HT29 colon = tested on: HT29 colon
SK-OV-3 ovarian = tested on: SK-OV-3 ovarian
SNB-75 CNS = tested on: SNB-75 CNS
MALME-3M melanoma = tested on: MALME-3M melanoma
CCRF-CEM leukemia = tested on: CCRF-CEM leukemia
HS 578T breast = tested on: HS 578T breast
U251 CNS = tested on: U251 CNS
NCI-H226 lung = tested on: NCI-H226 lung
HCC-2998 colon = tested on: HCC-2998 colon
786-0 renal = tested on: 786-0 renal
BT-549 breast = tested on: BT-549 breast
SW-620 colon = tested on: SW-620 colon
HOP-92 NSCLC = tested on: HOP-92 NSCLC
IGROV1 ovarian = tested on: IGROV1 ovarian
SF-539 CNS = tested on: SF-539 CNS
KM12 colon = tested on: KM12 colon
SF-295 CNS = tested on: SF-295 CNS
HCT-116 colon = tested on: HCT-116 colon
NCI-H522 lung = tested on: NCI-H522 lung
A549 NSCLC = tested on: A549 NSCLC
EKVX NSCLC = tested on: EKVX NSCLC
OVCAR-5 ovarian = tested on: OVCAR-5 ovarian
SK-MEL-28 melanoma = tested on: SK-MEL-28 melanoma
RPMI-8226 leukemia = tested on: RPMI-8226 leukemia
MCF7 breast = tested on: MCF7 breast
OVCAR-8 ovarian = tested on: OVCAR-8 ovarian
TK-10 renal = tested on: TK-10 renal
HL-60(TB) leukemia = tested on: HL-60(TB) leukemia
COLO 205 colon = tested on: COLO 205 colon
LOX IMVI melanoma = tested on: LOX IMVI melanoma
OVCAR-3 ovarian = tested on: OVCAR-3 ovarian
RXF 393 renal = tested on: RXF 393 renal
ACHN renal = tested on: ACHN renal
SK-MEL-2 melanoma = tested on: SK-MEL-2 melanoma
CAKI-1 renal = tested on: CAKI-1 renal
HOP-62 NSCLC = tested on: HOP-62 NSCLC
A498 renal = tested on: A498 renal
DU-145 prostate = tested on: DU-145 prostate
UACC-257 melanoma = tested on: UACC-257 melanoma
NCI-H460 lung = tested on: NCI-H460 lung
MDA-MB-435 = tested on: MDA-MB-435
OVCAR-4 ovarian = tested on: OVCAR-4 ovarian
SNB-19 CNS = tested on: SNB-19 CNS
NCI-H23 lung = tested on: NCI-H23 lung
SK-MEL-5 melanoma = tested on: SK-MEL-5 melanoma
UO-31 renal = tested on: UO-31 renal
SF-268 CNS = tested on: SF-268 CNS
MDA-MB-231 breast = tested on: MDA-MB-231 breast
SN12C renal = tested on: SN12C renal
PC-3 prostate = tested on: PC-3 prostate
NCI/ADR-RES ovarian = tested on: NCI/ADR-RES ovarian
K-562 leukemia = tested on: K-562 leukemia
MDA-N = tested on: MDA-N
T-47D breast = tested on: T-47D breast
HCT-15 colon = tested on: HCT-15 colon
UACC-62 melanoma = tested on: UACC-62 melanoma
M14 melanoma = tested on: M14 melanoma
MOLT-4 leukemia = tested on: MOLT-4 leukemia

CC(O)c1cc2c(s1)C(=O)c1c(C(C)O)csc1C2=O (configuration not stated)
TGI (HT29 colon): 2700 nM | TGI (SK-OV-3 ovarian): 1760 nM | TGI (SNB-75 CNS): 566 nM | TGI (MALME-3M melanoma): 115 nM | TGI (CCRF-CEM leukemia): 492 nM | TGI (HS 578T breast): 804 nM | TGI (U251 CNS): 4320 nM | TGI (NCI-H226 lung): 959 nM | TGI (HCC-2998 colon): 1070 nM | TGI (786-0 renal): 2080 nM | TGI (BT-549 breast): 378 nM | TGI (SW-620 colon): 833 nM | TGI (HOP-92 NSCLC): 762 nM | TGI (IGROV1 ovarian): 468 nM | TGI (SF-539 CNS): 449 nM | TGI (KM12 colon): 1080 nM | TGI (SF-295 CNS): 255 nM | TGI (HCT-116 colon): 1070 nM | TGI (NCI-H522 lung): 1130 nM | TGI (A549 NSCLC): 355 nM | TGI (EKVX NSCLC): 1130 nM | TGI (OVCAR-5 ovarian): 1350 nM | TGI (SK-MEL-28 melanoma): 466 nM | TGI (RPMI-8226 leukemia): 801 nM | TGI (MCF7 breast): > 100000 nM | TGI (OVCAR-8 ovarian): 717 nM | TGI (TK-10 renal): 1790 nM | TGI (HL-60(TB) leukemia): 41.5 nM | TGI (COLO 205 colon): 2580 nM | TGI (LOX IMVI melanoma): 1530 nM | TGI (OVCAR-3 ovarian): 135 nM | TGI (RXF 393 renal): 656 nM | TGI (ACHN renal): 1380 nM | TGI (SK-MEL-2 melanoma): 292 nM | TGI (CAKI-1 renal): 1010 nM | TGI (HOP-62 NSCLC): 439 nM | TGI (A498 renal): 462 nM | TGI (DU-145 prostate): 242 nM | TGI (UACC-257 melanoma): 216 nM | TGI (NCI-H460 lung): 148 nM | TGI (MDA-MB-435): 183 nM | TGI (OVCAR-4 ovarian): 524 nM | TGI (SNB-19 CNS): 1080 nM | TGI (NCI-H23 lung): 240 nM | TGI (SK-MEL-5 melanoma): 71.6 nM | TGI (UO-31 renal): 776 nM | TGI (SF-268 CNS): 1320 nM | TGI (MDA-MB-231 breast): 482 nM | TGI (SN12C renal): 349 nM | TGI (PC-3 prostate): 514 nM | TGI (NCI/ADR-RES ovarian): 593 nM | TGI (K-562 leukemia): 616 nM | TGI (MDA-N): 48.3 nM | TGI (T-47D breast): 667 nM | TGI (HCT-15 colon): 422 nM | TGI (UACC-62 melanoma): 183 nM

COc1cc(C2c3cc4c(cc3OC(NNS(=O)(=O)c3ccc(C)cc3)C2C)OCO4)cc(OC)c1OC (configuration not stated)
TGI (HT29 colon): 5380 nM | TGI (SK-OV-3 ovarian): > 70600 nM | TGI (M14 melanoma): 14500 nM | TGI (SNB-75 CNS): 17100 nM | TGI (MALME-3M melanoma): > 60800 nM | TGI (HS 578T breast): 15200 nM | TGI (U251 CNS): 13400 nM | TGI (NCI-H226 lung): 13200 nM | TGI (HCC-2998 colon): > 23400 nM | TGI (786-0 renal): 31500 nM | TGI (BT-549 breast): 45600 nM | TGI (SW-620 colon): > 100000 nM | TGI (HOP-92 NSCLC): 50100 nM | TGI (IGROV1 ovarian): > 67300 nM | TGI (SF-539 CNS): 3960 nM | TGI (KM12 colon): 32300 nM | TGI (SF-295 CNS): 6860 nM | TGI (MOLT-4 leukemia): > 100000 nM | TGI (HCT-116 colon): 12100 nM | TGI (NCI-H522 lung): 4870 nM | TGI (A549 NSCLC): 34400 nM | TGI (EKVX NSCLC): 18300 nM | TGI (OVCAR-5 ovarian): > 100000 nM | TGI (SK-MEL-28 melanoma): > 91200 nM | TGI (RPMI-8226 leukemia): 18400 nM | TGI (MCF7 breast): > 39800 nM | TGI (OVCAR-8 ovarian): 46800 nM | TGI (TK-10 renal): > 79000 nM | TGI (HL-60(TB) leukemia): 6590 nM | TGI (COLO 205 colon): 16800 nM | TGI (LOX IMVI melanoma): > 100000 nM | TGI (OVCAR-3 ovarian): 7780 nM | TGI (RXF 393 renal): 23800 nM | TGI (ACHN renal): > 52000 nM | TGI (SK-MEL-2 melanoma): 36900 nM | TGI (CAKI-1 renal): 23900 nM | TGI (HOP-62 NSCLC): 4680 nM | TGI (A498 renal): 5690 nM | TGI (DU-145 prostate): > 100000 nM | TGI (UACC-257 melanoma): > 53200 nM | TGI (NCI-H460 lung): 12400 nM | TGI (MDA-MB-435): 2250 nM | TGI (OVCAR-4 ovarian): 48400 nM | TGI (SNB-19 CNS): > 49100 nM | TGI (NCI-H23 lung): > 74600 nM | TGI (SK-MEL-5 melanoma): 25000 nM | TGI (UO-31 renal): > 100000 nM | TGI (SF-268 CNS): > 70500 nM | TGI (MDA-MB-231 breast): > 64100 nM | TGI (SN12C renal): > 71400 nM | TGI (PC-3 prostate): > 72500 nM | TGI (NCI/ADR-RES ovarian): > 100000 nM | TGI (MDA-N): 2010 nM | TGI (T-47D breast): > 100000 nM | TGI (HCT-15 colon): > 22800 nM | TGI (UACC-62 melanoma): 20300 nM
